In patent US10947252B2, “Inhibitors of KEAP1-Nrf2 protein-protein interaction” (Janssen Pharmaceutica NV, priority 2018, dated 2021) one finds EC50 and Kd data, which are given here for twelve molecules.

One may read the EC50 as the concentration needed to bring the measured effect to its halfway point. One may read the Kd as the constant that tells how readily two partners part at equilibrium.

Assay [1] relates to Glo-Response ARE-luc2P HEK293 cell line. Nature of the assay: ARE luciferase reporter cell-based assay.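 Further: luciferase signal tracks Nrf2 activation of the ARE once compounds disrupt KEAP1-Nrf2 binding, read with One-Glo reagent, DMSO serving as low control.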 The conditions noted are these: Homo sapiens, HEK293, 24 h, average of results obtained. A general note: A reporter such as luciferase makes a cellular process visible.
In assay [2] the target is Kelch domain of human KEAP1 (321-624 aa) (Homo sapiens (Human), UniProt Q14145). Nature of the assay: KEAP1 KELCH ThermoFluor binding assay.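 Further: Ligand-induced melting temperature shift of E. coli-expressed KEAP1 Kelch protein, Kd estimated from concentration-response curves of ΔTm.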 The conditions noted are these: KEAP Kelch […], 1,8-ANS, pH 7.0, average of results obtained, read-out: Tf Kd. On the technique in general: In DSF a fluorescence change marks the thermal transition of the protein.
Chain of Kelch domain of human KEAP1 (321-624 aa) (Q14145 321-624): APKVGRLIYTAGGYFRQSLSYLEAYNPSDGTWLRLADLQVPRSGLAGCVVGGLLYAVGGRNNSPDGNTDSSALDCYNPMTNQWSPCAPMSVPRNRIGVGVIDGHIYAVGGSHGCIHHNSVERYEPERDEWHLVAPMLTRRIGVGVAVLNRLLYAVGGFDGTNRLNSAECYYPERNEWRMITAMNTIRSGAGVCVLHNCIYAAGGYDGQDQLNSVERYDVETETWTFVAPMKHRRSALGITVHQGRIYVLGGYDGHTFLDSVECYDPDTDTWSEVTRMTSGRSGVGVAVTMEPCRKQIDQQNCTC

The structures appear in SMILES notation. Where a name gives a salt, the structure may show the parent alone.

`CCn1nnc2c(C)c([C@@H](CC(=O)O)c3ccc(C)c(CN4C[C@H]5CCCN5c5ncccc5S4(=O)=O)c3)ccc21` (single isomer, unassigned) [Example 21, (*S)-3-(3-(((R)-5,5-Dioxido-7a,8,9,10-tetrahydropyrido[2,3-f]pyrrolo[2,1-d][1,2,5]thiadiazepin-6(7H)-yl)methyl)-4-methylphenyl)-3-(1-ethyl-4-methyl-1H-benzo[d][1,2,3]triazol-5-yl)propanoic Acid] yielded an EC50 in assay [1] of 28 nM. Besides, the Kd in assay [2] is 0.273 nM.
As for `Cc1ccc([C@@H](c2ccn3c(C(F)F)nnc3c2C)C(C)(C)C(=O)O)cc1CN1CC2(CC2)Oc2nc(OCCN3CCCCC3)c(C)cc2S1(=O)=O` (single isomer, unassigned) [Example 374, (*S)-3-(3-(Difluoromethyl)-8-methyl-[1,2,4]triazolo[4,3-a]pyridine-7-yl)-2,2-dimethyl-3-(4-methyl-3-((8′-methyl-1′,1′-dioxido-7′-(2-(piperidin-1-yl)ethoxy)spiro[cyclopropane-1,4′-pyrido[2,3-b][1,4,5]oxathiazepin]-2′(3′H)-yl)methyl)phenyl)propanoic Acid], the EC50 in assay [1] amounted to 4.8 nM. In assay [2], the Kd is below 1 nM.
In assay [1], `CCn1nnc2c(C)c(C(CC(=O)O)c3ccc(C)c(CN4C[C@H]5CCCN5c5ncccc5S4(=O)=O)c3)ccc21` (stereo partly drawn) [Example 20, 3-(3-(((R)-5,5-Dioxido-7a,8,9,10-tetrahydropyrido[2,3-f]pyrrolo[2,1-d][1,2,5]thiadiazepin-6(7H)-yl)methyl)-4-methylphenyl)-3-(1-ethyl-4-methyl-1H-benzo[d][1,2,3]triazol-5-yl)propanoic Acid and its Trifluoroacetic Acid Salt] came in with an EC50 of 6.3 nM. Also, in assay [2], the Kd was 0.081 nM.
On the same counts, the results for `Cc1ccc([C@@H](CC(=O)O)c2ccn3c(C(F)F)nnc3c2C)cc1CN1C[C@H]2CCCN2c2ncccc2S1(=O)=O` (single isomer, unassigned) [Example 451, (*R)-3-(3-(Difluoromethyl)-8-methyl-[1,2,4]triazolo[4,3-a]pyridin-7-yl)-3-(3-(((R)-5,5-dioxido-7a,8,9,10-tetrahydropyrido[2,3-f]pyrrolo[2,1-d][1,2,5]thiadiazepin-6(7H)-yl)methyl)-4-methylphenyl)propanoic Acid] are 265 nM and below 1 nM.
In turn, `Cc1ccc(C(CC(=O)O)c2ccn3c(C(F)F)nnc3c2C)cc1CN1C[C@@H]2COCCN2c2ncccc2S1(=O)=O` (stereo in doubt) [Example 457, 3-(3-(Difluoromethyl)-8-methyl-[1,2,4]triazolo[4,3-a]pyridin-7-yl)-3-(3-(((*R)-5,5-dioxido-7a,8,10,11-tetrahydro-[1,4]oxazino[3,4-d]pyrido[2,3-f][1,2,5]thiadiazepin-6(7H)-yl)methyl)-4-methylphenyl)propanoic Acid] yielded an EC50 in assay [1] of 479 nM. In addition, the Kd in assay [2] was found to be 1.02 nM.
In the same order, the values of `Cc1ccc([C@H](CC(=O)O)c2ccc3c(nnn3CC3CC3)c2C)cc1CN1CC2(COC2)Oc2ccccc2S1(=O)=O` (single isomer, unassigned) [Example 77, (*S)-3-(1-(Cyclopropylmethyl)-4-methyl-1H-benzo[d][1,2,3]triazol-5-yl)-3-(3-((1′,1′-dioxidospiro[benzo[b][1,4,5]oxathiazepin-4,3′-oxetan]-2,(3H)-yl)methyl)-4-methylphenyl)propanoic Acid] are 15.7 nM and 0.42 nM.
In the same order, the values of `Cc1c(C(CC(=O)O)c2ccc(Cl)c(CN3CC4(COC4)Oc4ncccc4S3(=O)=O)c2)ccn2c(C(F)(F)F)nnc12` (stereo not drawn) [Example 86, 3-(4-Chloro-3-((1′,1′-dioxoidospiro[oxetane-3,4′-pyrido[2,3-b][1,4,5]oxathiazepin]-2′(3′H)-yl)methyl)phenyl)-3-(8-methyl-3-(trifluoromethyl)-[1,2,4]triazolo[4,3-a]pyridine-7-yl)propanoic Acid] are 6240 nM and 2.4 nM.
On the same counts, the results for `COc1ccc2c(n1)OC1(CCOCC1)CN(Cc1cc([C@@H](c3ccn4c(C(F)F)nnc4c3C)C(C)(C)C(=O)O)ccc1C)S2(=O)=O` (single isomer, unassigned) [Example 582, (*S)-3-(3-(Difluoromethyl)-8-methyl-[1,2,4]triazolo[4,3-a]pyridin-7-yl)-3-(3-((7′-methoxy-1′,1′-dioxido-2,3,5,6-tetrahydrospiro[pyran-4,4′-pyrido[2,3-b][1,4,5]oxathiazepin]-2′(3′H)-yl)methyl)-4-methylphenyl)-2,2-dimethylpropanoic Acid] are 1.43 nM and below 1 nM.
Regarding `Cc1ccc([C@H](c2ccc3c(nnn3C3CC3)c2C)C(C)(C)C(=O)O)cc1CN1CC2(CCNCC2)Oc2ncccc2S1(=O)=O` (single isomer, unassigned) [Example 647, (*R)-3-(1-Cyclopropyl-4-methyl-1H-benzo[d][1,2,3]triazol-5-yl)-3-(3-((1′,1′-dioxidospiro[piperidine-4,4′-pyrido[2,3-b][1,4,5]oxathiazepin]-2′(3′H)-yl)methyl)-4-methylphenyl)-2,2-dimethylpropanoic Acid], the EC50 in assay [1] came to 11.6 nM. In addition, the Kd in assay [2] is below 1 nM.
On the same counts, the results for `Cc1ccc([C@H](c2ccc3c(nnn3C3CC3)c2C)C(C)(C)C(=O)O)cc1CN1CC2(CC2)Oc2nc(N[C@@H](C)CN3CCCCC3)c(C)cc2S1(=O)=O` (single isomer, unassigned) [Example 660, (*R)-3-(1-Cyclopropyl-4-methyl-1H-benzo[d][1,2,3]triazol-5-yl)-2,2-dimethyl-3-(4-methyl-3-((8′-methyl-1′,1′-dioxido-7′-(((S)-1-(piperidin-1-yl)propan-2-yl)amino)spiro[cyclopropane-1,4′-pyrido[2,3-b][1,4,5]oxathiazepin]-2′(3′H)-yl)methyl)phenyl)propanoic Acid] are 235 nM and 681 nM.
In the same order, the values of `Cc1cnc2c(c1)S(=O)(=O)N(Cc1cc([C@@H](c3ccn4c(C(F)(F)F)nnc4c3C)C(C)(C)C(=O)O)ccc1C)C[C@]1(CCOC1)O2` (single isomer, unassigned) [Example 383, (*S)-2,2-Dimethyl-3-(4-methyl-3-(((*S)-8′-methyl-1′,1′-dioxido-4,5-dihydro-2H-spiro[furan-3,4′-pyrido[2,3-b][1,4,5]oxathiazepin]-2′(3′H)-yl)methyl)phenyl)-3-(8-methyl-3-(trifluoromethyl)-[1,2,4]triazolo[4,3-a]pyridin-7-yl)propanoic Acid] are 1.2 nM and below 1 nM.
On the same counts, the results for `CCn1nnc2c(C)c([C@H](CC(=O)O)c3ccc(C)c(CN4CC5(COC5)Oc5ncccc5S4(=O)=O)n3)ccc21` (single isomer, unassigned) [Example 241, (*S)-3-(6-((1′,1′-Dioxidospiro[oxetane-3,4′-pyrido[2,3-b][1,4,5]oxathiazepin]-2′(3′H)-yl)methyl)-5-methylpyridin-2-yl)-3-(1-ethyl-4-methyl-1H-benzo[d][1,2,3]triazol-5-yl)propanoic Acid] are 28 nM and below 1 nM.
